One assay concerns the target T1, human TYRO3 (455-end) (Homo sapiens, UniProt Q06418).
T1 construct: TYRO3 (455-end); purchased SignalChem, Canada
T1 sequence (Q06418 455-890 limits assumed): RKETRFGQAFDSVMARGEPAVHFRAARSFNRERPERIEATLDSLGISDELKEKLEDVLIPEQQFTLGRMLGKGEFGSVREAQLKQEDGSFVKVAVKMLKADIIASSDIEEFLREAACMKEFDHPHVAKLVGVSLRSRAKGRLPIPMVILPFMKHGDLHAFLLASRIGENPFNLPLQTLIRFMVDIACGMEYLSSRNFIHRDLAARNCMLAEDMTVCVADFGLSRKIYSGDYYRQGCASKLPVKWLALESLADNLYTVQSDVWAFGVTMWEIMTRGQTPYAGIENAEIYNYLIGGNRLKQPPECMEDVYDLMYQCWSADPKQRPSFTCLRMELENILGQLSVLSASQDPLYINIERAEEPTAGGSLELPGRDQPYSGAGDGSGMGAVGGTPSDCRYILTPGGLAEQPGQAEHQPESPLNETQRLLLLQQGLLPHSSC
The assay can be described thus: HTRF kinase activity biochemical assay, TYRO3. The note with it: 10 μM ATP, 30 minutes pre-incubation; read-out: HTRF TYRO IC50.

In a further assay the target is T2, human AXL (473-end) (Homo sapiens, UniProt P30530).
T2 construct: human AXL (473-end); purchased SignalChem, Canada
T2 sequence (P30530 473-894 limits assumed): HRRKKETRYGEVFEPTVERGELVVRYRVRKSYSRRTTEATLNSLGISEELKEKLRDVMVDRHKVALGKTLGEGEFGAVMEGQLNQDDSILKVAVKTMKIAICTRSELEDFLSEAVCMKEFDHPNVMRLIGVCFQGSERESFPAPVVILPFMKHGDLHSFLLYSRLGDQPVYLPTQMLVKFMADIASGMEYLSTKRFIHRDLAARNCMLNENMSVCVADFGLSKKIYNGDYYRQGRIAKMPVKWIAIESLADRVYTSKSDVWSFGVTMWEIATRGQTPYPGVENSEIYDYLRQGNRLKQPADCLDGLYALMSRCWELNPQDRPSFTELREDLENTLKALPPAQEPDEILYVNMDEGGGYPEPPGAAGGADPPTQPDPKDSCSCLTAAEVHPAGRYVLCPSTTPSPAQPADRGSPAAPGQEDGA
The assay can be described thus: HTRF kinase activity biochemical assay, AXL. Conditions: 10 μM ATP, 30 minutes pre-incubation. A general note: In TR-FRET formats the signal depends on donor and acceptor labels being close together.

The target of the next assay is T3, human MER (528-end) (Homo sapiens, UniProt Q12866).
T3 construct: human MER (528-end); purchased Camnabio, Japan
T3 sequence (Q12866 528-999 limits assumed): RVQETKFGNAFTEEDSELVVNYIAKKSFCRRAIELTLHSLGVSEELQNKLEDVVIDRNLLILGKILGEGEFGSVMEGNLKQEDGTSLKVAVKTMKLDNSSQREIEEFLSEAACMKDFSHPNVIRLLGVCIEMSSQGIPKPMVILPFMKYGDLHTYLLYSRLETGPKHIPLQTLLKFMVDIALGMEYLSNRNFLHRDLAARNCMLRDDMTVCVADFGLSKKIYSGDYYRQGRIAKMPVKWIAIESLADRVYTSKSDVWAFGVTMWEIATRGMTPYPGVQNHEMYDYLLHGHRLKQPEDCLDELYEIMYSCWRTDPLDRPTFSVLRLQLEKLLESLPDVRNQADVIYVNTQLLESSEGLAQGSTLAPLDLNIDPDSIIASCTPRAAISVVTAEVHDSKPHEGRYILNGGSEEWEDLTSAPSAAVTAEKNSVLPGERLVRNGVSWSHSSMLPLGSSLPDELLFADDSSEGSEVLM
The assay can be described thus: HTRF kinase activity biochemical assay, MER. The note with it: 10 μM ATP, 30 minutes pre-incubation; read-out: HTRF MERTK IC50.

Take `CC1(C)CN(C2CCN(CCO)CC2)c2ccc(-c3ccc(CO[C@H]4COC[C@@H]4NC(=O)c4cc(-c5cccnc5F)cnc4N)cc3)cc21` [Example 49, 6-amino-2′-fluoro-N-{(3S,4R)-4-[(4-{1-[1-(2-hydroxyethyl)piperidin-4-yl]-3,3-dimethyl-2,3-dihydro-1H-indol-5-yl}phenyl)methoxy]oxolan-3-yl}[3,3′-bipyridine]-5-carboxamide]: the IC50 (commonly the concentration that inhibits the measured activity by half) at human TYRO3 (455-end) is 100 to 1000 nM; against human AXL (473-end), < 10 nM; on human MER (528-end), < 10 nM.

Regarding `Cn1cc(-c2cnc(N)c(C(=O)N[C@H]3CCC[C@@H]3OCc3ccc(-c4ccc5c(c4)CC(F)(F)C5N4CCN(CCO)CC4)cc3)c2)cn1` (stereo partly drawn) [Example 50, 2-amino-N-{(1S,2S)-2-[(4-{2,2-difluoro-1-[4-(2-hydroxyethyl)piperazin-1-yl]-2,3-dihydro-1H-inden-5-yl}phenyl)methoxy]cyclopentyl}-5-(1-methyl-1H-pyrazol-4-yl)pyridine-3-carboxamide], the figures for the IC50 on human TYRO3 (455-end), against human AXL (473-end) and on human MER (528-end) were 100 to 1000 nM, < 10 nM and < 10 nM, respectively.

As for `C=C(C)c1cnc(N)c(C(=O)N[C@H]2CCC[C@@H]2OCc2ccc(-c3ccc4c(c3)C(C)(C)CN4C3CCN(CCO)CC3)cc2)c1` [Example 51, 2-amino-N-{(1S,2S)-2-[(4-{1-[1-(2-hydroxyethyl)piperidin-4-yl]-3,3-dimethyl-2,3-dihydro-1H-indol-5-yl}phenyl)methoxy]cyclopentyl}-5-(prop-1-en-2-yl)pyridine-3-carboxamide], the IC50 at human TYRO3 (455-end), on human AXL (473-end) and at human MER (528-end) was < 10 nM in each case.

As for `CC1(C)CN(C2CCN(CCO)CC2)c2ccc(-c3ccc(CO[C@H]4COC[C@@H]4NC(=O)c4nc(-c5ccc(F)nc5)cnc4N)cc3)cc21` [Example 52, 3-amino-6-(6-fluoropyridin-3-yl)-N-{(3S,4R)-4-[(4-{1-[1-(2-hydroxyethyl)piperidin-4-yl]-3,3-dimethyl-2,3-dihydro-1H-indol-5-yl}phenyl)methoxy]oxolan-3-yl}pyrazine-2-carboxamide], the values for the half-inhibitory concentration (IC50) at human TYRO3 (455-end), at human AXL (473-end) and at human MER (528-end) were 100 to 1000 nM, 10 to 100 nM and < 10 nM, respectively.

Turning to `Cn1cc(-c2cnc(N)c(C(=O)N[C@H]3CCC[C@@H]3OCc3ccc(-c4ccc5[nH]c(C(F)(F)F)cc5c4)cc3)c2)cn1` [Example 53, 2-amino-5-(1-methyl-1H-pyrazol-4-yl)-N-[(1S,2S)-2-({4-[2-(trifluoromethyl)-1H-indol-5-yl]phenyl}methoxy)cyclopentyl]pyridine-3-carboxamide], the IC50 on human TYRO3 (455-end) was > 1000 nM; against human AXL (473-end) it was 100 to 1000 nM; at human MER (528-end), 100 to 1000 nM.

Take `Cc1cn(C)c2ccc(-c3ccc(CO[C@H]4CCC[C@@H]4NC(=O)c4cc(-c5cnn(C)c5)cnc4N)cc3)cc12` [Example 54, 2-amino-N-[(1S,2S)-2-{[4-(1,3-dimethyl-1H-indol-5-yl)phenyl]methoxy}cyclopentyl]-5-(1-methyl-1H-pyrazol-4-yl)pyridine-3-carboxamide]: the IC50 on human TYRO3 (455-end) is > 1000 nM; at human AXL (473-end) it was 10 to 100 nM; on human MER (528-end), 10 to 100 nM.

Take `Cc1[nH]c2ccc(-c3ccc(CO[C@H]4CCC[C@@H]4NC(=O)c4cc(-c5cnn(C)c5)cnc4N)cc3)cc2c1C` [Example 55, 2-amino-N-[(1S,2S)-2-{[4-(2,3-dimethyl-1H-indol-5-yl)phenyl]methoxy}cyclopentyl]-5-(1-methyl-1H-pyrazol-4-yl)pyridine-3-carboxamide]: the IC50 on human TYRO3 (455-end) is > 1000 nM; on human AXL (473-end), 10 to 100 nM; on human MER (528-end) it was 10 to 100 nM.

Regarding `Cc1cc2cc(-c3ccc(CO[C@H]4CCC[C@@H]4NC(=O)c4cc(-c5cnn(C)c5)cnc4N)cc3)ccc2[nH]1` [Example 56, 2-amino-N-[(1S,2S)-2-{[4-(2-methyl-1H-indol-5-yl)phenyl]methoxy}cyclopentyl]-5-(1-methyl-1H-pyrazol-4-yl)pyridine-3-carboxamide], the 50% inhibitory concentration (IC50) is > 1000 nM at human TYRO3 (455-end), 10 to 100 nM on human AXL (473-end) and 10 to 100 nM on human MER (528-end).

As for `Cn1cc(-c2cnc(N)c(C(=O)N[C@H]3CCC[C@@H]3OCc3ccc(-c4ccc5c(ccn5CCO)c4)cc3)c2)cn1` [Example 57, 2-amino-N-[(1S,2S)-2-({4-[1-(2-hydroxyethyl)-1H-indol-5-yl]phenyl}methoxy)cyclopentyl]-5-(1-methyl-1H-pyrazol-4-yl)pyridine-3-carboxamide], the concentration for half-maximal inhibition (IC50) on human TYRO3 (455-end) is > 1000 nM; on human AXL (473-end), 10 to 100 nM; on human MER (528-end), < 10 nM.

For `Cn1cc(-c2cnc(N)c(C(=O)N[C@H]3CCC[C@@H]3OCc3ccc(-c4ccc5c(ccn5CCC(=O)O)c4)cc3)c2)cn1` [Example 58, 3-{5-[4-({[(1S,2S)-2-{[2-amino-5-(1-methyl-1H-pyrazol-4-yl)pyridine-3-carbonyl]amino}cyclopentyl]oxy}methyl)phenyl]-1H-indol-1-yl}propanoic acid], the IC50 was > 1000 nM at human TYRO3 (455-end), 100 to 1000 nM against human AXL (473-end) and 10 to 100 nM at human MER (528-end).

In the case of `CC(C)n1ccc2cc(-c3ccc(CO[C@H]4CCC[C@@H]4NC(=O)c4cc(-c5cnn(C)c5)cnc4N)cc3)ccc21` [Example 60, 2-amino-5-(1-methyl-1H-pyrazol-4-yl)-N-[(1S,2S)-2-({4-[1-(propan-2-yl)-1H-indol-5-yl]phenyl}methoxy)cyclopentyl]pyridine-3-carboxamide], the IC50 at human TYRO3 (455-end) was > 1000 nM; against human AXL (473-end) it was 10 to 100 nM; at human MER (528-end), < 10 nM.

Turning to `Cn1cc(-c2cnc(N)c(C(=O)N[C@H]3CCC[C@@H]3OCc3ccc(-c4ccc5c(ccn5CC(=O)O)c4)cc3)c2)cn1` [Example 61, {5-[4-({[(1S,2S)-2-{[2-amino-5-(1-methyl-1H-pyrazol-4-yl)pyridine-3-carbonyl]amino}cyclopentyl]oxy}methyl)phenyl]-1H-indol-1-yl}acetic acid], the 50% inhibitory concentration (IC50) was > 1000 nM on human TYRO3 (455-end), 10 to 100 nM against human AXL (473-end) and 10 to 100 nM on human MER (528-end).

Regarding `Nc1ncc(-c2ccc(F)nc2)cc1C(=O)N[C@H]1CCC[C@@H]1OCc1ccc(-c2ccc3c(c2)CC(F)(F)C3N2CCN(CC(O)CO)CC2)cc1` (stereo partly drawn) [Example 62, 6-amino-N-{(1S,2S)-2-[(4-{1-[4-(2,3-dihydroxypropyl)piperazin-1-yl]-2,2-difluoro-2,3-dihydro-1H-inden-5-yl}phenyl)methoxy]cyclopentyl}-6′-fluoro[3,3′-bipyridine]-5-carboxamide], the 50% inhibitory concentration (IC50) at human TYRO3 (455-end) is > 1000 nM; against human AXL (473-end) it was < 10 nM; on human MER (528-end), < 10 nM.

For the molecule `Cn1ccc(-c2cnc(N)c(C(=O)N[C@H]3CCC[C@@H]3OCc3ccc(-c4ccc5c(c4)CC(F)(F)C5N4CCN(CC(O)CO)CC4)cc3)c2)cc1=O` (stereo partly drawn) [Example 63, 6-amino-N-{(1S,2S)-2-[(4-{1-[4-(2,3-dihydroxypropyl)piperazin-1-yl]-2,2-difluoro-2,3-dihydro-1H-inden-5-yl}phenyl)methoxy]cyclopentyl}-1′-methyl-2′-oxo-1′,2′-dihydro[3,4′-bipyridine]-5-carboxamide], the half-maximal inhibitory concentration (IC50) on human TYRO3 (455-end) is 100 to 1000 nM; on human AXL (473-end) it was < 10 nM; on human MER (528-end), < 10 nM.

Turning to `Cn1cc(-c2cnc(N)c(C(=O)N[C@H]3CCC[C@@H]3OCc3ccc(-c4ccc5c(ccn5C(F)F)c4)cc3)c2)cn1` [Example 64, 2-amino-N-[(1S,2S)-2-({4-[1-(difluoromethyl)-1H-indol-5-yl]phenyl}methoxy)cyclopentyl]-5-(1-methyl-1H-pyrazol-4-yl)pyridine-3-carboxamide], the IC50 at human TYRO3 (455-end) is > 1000 nM; against human AXL (473-end), 10 to 100 nM; on human MER (528-end), < 10 nM.

Values taken from patent US20260146035A1, “FUSED BICYCLIC COMPOUNDS AND THEIR USE AS MER AND AXL INHIBITORS” (DONG-A ST CO., LTD., priority 2022, published 2026).
